In patent publication US12485117B2, “Compositions and methods for activating signaling through the CB1 cannabinoid receptor for treating and preventing diseases and disorders characterized by abnormal cellular accumulation of sphingolipids such as sphingomyelin” (Wylder Nation Foundation, priority 2018, dated 2025):

What was measured:
[1] = test system: permeabilized ASMko neurons; experiment: Lysenin staining of SM in intracellular compartments of permeabilized ASMko neurons; format: cell-based, mouse; conditions: 1 hour at 50 μM (FIG. 9)
Method: Statistical significance Student's t-test, *P<0.05, n=3 independent cultures.
To determine whether SM hydrolysis induced by FAAH inhibitors was taking place not only at the cell surface, but also in intracellular compartments, we performed staining with lysenin, a worm toxin that specifically binds to SM, in permeabilized ASMko neurons non-treated or treated with anandamide, URB, PF-04457845 or JNJ for 1 hour at 50 μM.

ASMko cultured neurons = experiment: TUNEL assay of neuronal death in ASMko cultured neurons; format: cell-based, mouse; conditions: 50 μM for 1 hour
Method: FIG. 10B is a graph showing mean±SEM percentage of apoptotic cells, measured by TUNEL assay, with respect to the positive control in which the cells were treated with H202.
The percentage of dying neurons showing DNA fragmentation was 5-8% in the treated ASMko cultures similar to the non-treated ones.

wt and ASMko mice = experiment: Y maze test (hippocampal dependent memory); format: in vivo, mouse; conditions: 0.3 mg/kg every three days
Method: FIGS. 13A-13C show the effect of PF-04457845 treatment on various behavioral functions. […] (n=14; **p<0.01, *p<0.05).
(§1) Treatment started at 7 weeks of age and continued for 8 weeks. PF-04457845 was dissolved in 0.9% NaCl and delivered through oral gavage at a dose of 0.3 mg/kg every three days. We chose this dose based on the studies published by Ahn et al., (J Pharm Exp Ther 2011). Control groups received same volume of 0.9% NaCl without PF-04457845.
Hippocampal dependent memory was monitored by the Y maze test (FIG. 13A). During the first training trial (8 min) the mice were only allowed to explore two arms (the initial arm and one other arm), maintaining the third arm (novel arm) closed. After 1 hour, the mice were placed back in the same starting arm with free access to all three arms for 5 min.
The time spent in the novel arm was counted and expressed as a percentage of the total exploration time. Non-treated ASMko mice spent less time in the novel arm than wt mice, indicative of impaired memory.

Purkinje cells = experiment: Lysosomal size by Lamp1 staining of Purkinje cells; format: in vivo, mouse; conditions: ASMko mice, 0.3 mg/kg every three days
Method: FIGS. 15A-15D show representative images of Purkinje cells from wildtype and ASMko mice treated or not treated with PF-04457845.
as §1
Purkinje cell death was analyzed by Calbindin1 staining in the cerebellum of wt and ASMko treated or not with PF-04457845 (FIG. 15A). Loss of Purkinje cells was prominent in non-treated ASMko mice compared to wt. […] PF-04457845 treatment had no effect on Purkinje cell survival in wt mice. We also analyzed Lysosomal size by staining Purkinje cells of the cerebellum for Lamp1 expression in samples from wt and ASMko mice treated or not treated with PF-04457845 (FIG. 15B). Lysosomal size was increased by an average 45% in the non-treated ASMko compared to wt mice consistent with sphingomyelin accumulation in these organelles. This alteration was prevented to a significant extent (35%) in the ASMko mice treated with PF.

wt or ASMko mice = experiment: Acute toxicity: in-life observations for 48 hours after a single oral dose; format: in vivo, mouse; conditions: 48 hours after single oral dose, any of the doses (0.1, 1, 5 mg/kg)
Method: To that end, a toxicity assessment of oral PF-04457845 treatment in AMSko mice was performed to determine the toxicity in liver and brain of single doses of PF-04457845 administered by oral gavage at different concentration.
(§2) We divided wt and ASMko mice of 4.5 months of age in six experimental groups: ASMko control (n=3), ASMko low dose (n=3), ASMko intermediate dose (n=3), ASMko high dose (n=3), wt control (n=3), wt high dose (n=3). PF-04457845, provided as powder, was dissolved in 0.9% NaCl and administered to mice through oral gavage. Vehicle groups received same volume of 0.9% NaCl.
Doses have been calculated taking into account that used in the study conducted in healthy humans (Li et al., Br J Clin Pharmacol 2011, 73:706-716). […] Estimating an average weight of 60 kg for an adult human the daily dose equals to 0.0083 mg/kg. This dose was very similar to that used in our first 8 week-long treatment with PF-04457845 in ASMko mice, which according to the formulas to calculate equivalence between humans and mice (Nair and Jacob J Basic Clin Pharma 2016, 7:27-31) corresponded to a daily HED dose of 0.0072 mg/kg. For this toxicity study we agreed to take into account the human dose: 0.0083 mg/kg. Formula conversion to mouse dose: HED (mg/kg)=Mouse dose (mg/kg)×mouseKm/Human Km).

microglia = experiment: Acute toxicity: brain inflammation by iba-1 immunofluorescence (microglia numbers); format: in vivo, mouse; conditions: ASMko mice
Excerpt: FIGS. 29A-29C show representative images of immunofluorescence against ibal, a marker for microglia, which is used as a readout for inflammation. FIGS. 29A-29C show ibal expression in hippocampus (FIG. 29A), cerebellum (FIG. 29B), and cortex (FIG. 29C), respectively, of wt and ASMko mice treated with PF-04457845 at the indicated doses or with vehicle.
as §2
Inflammation was analyzed in different brain areas (hippocampus, cerebellum and cortex) by immunofluorescence against the microglia marker iba-1. Under inflammatory conditions the number of microglia increases. Confirming high inflammation in the brain of vehicle-treated ASMko mice, microglia numbers increased compared to wt mice in all areas (FIGS. 29A-29C).

pediatric ASMD patient = experiment: Single patient preliminary clinical trial: liver enzymes ALT and AST; format: in vivo, human
Excerpt: Based on the compelling safety and efficacy data from the ASMko mouse model, we submitted an expanded access request to the Food and Drug Administration for a single patient preliminary clinical trial to assess the effect of PF-04457845 administration to a single pediatric ASMD patient. The FDA approved the trial, and it is presently ongoing. The patient received their first does of PF-04457845 (which is being administered via NG-tube delivery) nearly one year ago now, and the patient will continue to be monitored for improvement in ASMD-related symptoms and/or markers.
Although clinical trial data is not available to us yet, it is worth noting as per the normal standard of care for this patient, weekly or biweekly monitoring of liver enzymes alanine aminotransferase (ALT) and aspartate transaminase (AST) has been ongoing since before initiation of the trial and these analyses are ongoing. Elevated blood levels of AST and ALT are seen in 50%-75% of ASMD patients (McGovern M, et al., Orphanet J Rare Dis. 2017; 12: 41) and are indicative of liver damage caused by the progression of the disease. […] Moreover, ALT/AST ratios appear stable.

[2] = about one year of treatment via NG-tube, preliminary

O=C(Nc1cccnn1)N1CCC(=Cc2cccc(Oc3ccc(C(F)(F)F)cn3)c2)CC1 [PF-04457845]
SM levels in intracellular compartments (lysenin staining) [1]: significantly reduced SM levels
neuronal death as assessed by TUNEL (ASMko cultured neurons): did not induce neuronal death
time in the novel arm of Y maze (memory) (wt and ASMko mice; ASMko mice): restored memory function
time in the novel arm of Y maze, treated versus non-treated (wt and ASMko mice; wt mice): No differences
increase of lysosomal size prevented (Lamp1) (Purkinje cells): 35%
adverse effects (abnormal behavior, weight loss, motor anomalies, skin alterations) (wt or ASMko mice): No evident adverse effects
microglia numbers in hippocampus, cerebellum and cortex (microglia; single dose 0.1 mg/kg): did not significantly alter microglia numbers
microglia numbers in hippocampus, cerebellum and cortex (microglia; single dose 1 mg/kg): remarkably reduced microglia numbers to levels similar to wt mice
microglia numbers in hippocampus, cerebellum and cortex (microglia; single dose 5 mg/kg): remarkably reduced microglia numbers to levels similar to wt mice
ALT/AST ratios (pediatric ASMD patient; about one year of treatment): stable
ALT, current value relative to pre-treatment (pediatric ASMD patient; [2]): approximately half
AST, current value relative to pre-treatment (pediatric ASMD patient; [2]): approximately half
tolerability (pediatric ASMD patient; about one year of treatment, preliminary): well tolerated without signs of liver toxicity
